{
  "source": "patent US20120076781A1",
  "about": "“METHODS OF TREATING CANCERS WITH HER3 ANTISENSE OLIGONUCLEOTIDES” (ENZON PHARMACEUTICALS, INC., priority 2009, published 2012)",
  "key": {"[1]": {"system": "HCC827R gefitinib resistant cells", "experiment": "Cell proliferation of HCC827R cells under gefitinib (MTT assay)", "type": "cell-based, human", "settings": "highest concentration tested 10 μM", "experimental": "HCC827 lung adenocarcinoma cells (ATCC CRL-2868) were maintained at 37° C. in a humidified atmosphere of 5% CO2 and 95% air in RPMI medium supplemented with 10% fetal bovine serum. To generate gefitinib resistance, cells were treated with increasing amounts of gefitinib (up to 500 nM) for a period of 3 months."}, "[2]": {"system": "HIF-1 alpha mRNA", "experiment": "HIF-1 alpha mRNA in 15PC3 xenograft tumor, different dosing cycle", "type": "in vivo, human", "settings": "32.4 x 4 mg/kg i.v., every third day", "experimental": "(§1) To evaluate the knockdown efficacy of the HER3 oligomeric compounds in vivo, the female nude mice bearing 15PC3 xenografts developed by subcutaneous injection of 5×10^6 cells/mouse into the right axillary flank, were injected intravenously with the oligomers at various doses and injection schedules (i.e. single dose, qd, q3d, q4d). Scrambled oligomer SEQ ID NO: 236 served as a negative control. 24 hours after the last injection, the mice were euthanized and liver and tumor tissues were collected in RNAlater solution (Ambion). Total RNA was purified from the tissues and the levels of HER3 mRNA were determined by quantitative reverse transcription-real time PCR (qRT-PCR) using the QuantiTect Probe RT-PCR kit (Cat#: 204443; Qiagen). GAPDH mRNA served as an internal control.\n(§2) The knockdown efficacy of oligomers was evaluated in vivo in nude mice bearing xenograft tumors derived from 15PC3 cells or A549 cells (NSCLC) or N87 cells (gastric carcinoma) using a similar protocol to the one described above in Example 11. Oligomers were administered by injection every third day in 2-4 doses. Tissues were harvested 3 or 4 days after the last injection.\n(§3) Data in Tables 6 and 7 are presented as % HER3 mRNA or HIF-1 alpha mRNA relative to saline treated controls in liver and tumor samples after i.v. dosing of animals with the indicated oligomers."}, "[3]": {"system": "HER3 mRNA", "experiment": "HER3 mRNA knockdown in liver of xenograft-bearing nude mice, different dosing cycle", "type": "in vivo, mouse", "settings": "15PC3 xenograft mice, 32.4 x 4 mg/kg i.v., every third day", "experimental": "as §1\nas §2, with “Oligomers were administered by injection every third day in 2-4 doses.” left out\nas §3"}, "[4]": {"system": "human HER2 mRNA", "experiment": "Down-regulation of HER2 mRNA in transfected 15PC3 cells, real-time PCR", "type": "cell-based", "settings": "25 nM", "experimental": "(§4) 15PC3: The human prostate cancer cell line 15PC3 was cultured in DMEM (Sigma)+10% fetal bovine serum (FBS)+2 mM Glutamax I+gentamicin (25 μg/ml).\n(§5) The cells were treated with oligonucleotides using the cationic liposome formulation LipofectAMINE 2000 (Gibco) as transfection vehicle. Cells were seeded in 6-well cell culture plates (NUNC) and treated when 80-90% confluent. Oligomer concentrations ranged from 1 nM to 25 nM final concentration. Formulation of oligomer-lipid complexes was carried out essentially as described by the manufacturer using serum-free OptiMEM (Gibco) and a final lipid concentration of 5 μg/mL LipofectAMINE 2000. Cells were incubated at 37° C. for 4 hours and treatment was stopped by removal of oligomer-containing culture medium. Cells were washed and serum-containing medium was added. After oligomer treatment, cells were allowed to recover for 20 hours before they were harvested for RNA analysis.\n(§6) Total RNA was extracted from cells transfected as described above and using the Qiagen RNeasy kit (Qiagen cat. no. 74104) according to the manufacturer's instructions. First strand synthesis was performed using Reverse Transcriptase reagents from Ambion according to the manufacturer's instructions.\n(§7) For each sample 0.5 μg total RNA was adjusted to (10.8 μl) with RNase free H2O and mixed with 2 μl random decamers (50 μM) and 4 μl dNTP mix (2.5 mM each dNTP) and heated to 70° C. for 3 min after which the samples were rapidly cooled on ice. After cooling the samples on ice, 2 μl 10× Buffer RT, 1 μl MMLV Reverse Transcriptase (100 U/μl) and 0.25 μl RNase inhibitor (10 U/μl) was added to each sample, followed by incubation at 42° C. for 60 min, heat inactivation of the enzyme at 95° C. for 10 min, and then cooling the sample to 4° C.\n(§8) The sample content of human HER3, EGFR and HER2 mRNA was quantified using the human HER3, EGFR and HER2 ABI Prism Pre-Developed TaqMan Assay Reagents (Applied Biosystems cat. no. Hs00951444_ml (HER3), Hs00193306_ml (EGFR) and Hs00170433_ml (HER2) according to the manufacturer's instructions.\n(§9) Glyceraldehyde-3-phosphate dehydrogenase (GAPDH) mRNA quantity was used as an endogenous control for normalizing any variance in sample preparation. The sample content of human GAPDH mRNA was quantified using the human GAPDH ABI Prism Pre-Developed TaqMan Assay Reagent (Applied Biosystems cat. no. 4310884E) according to the manufacturer's instructions.\n(§10) The cDNA from the first strand synthesis performed as described in Example 5 was diluted 2-20 times, and analyzed by real time quantitative PCR using Taqman 7500 FAST or 7900 FAST from Applied Biosystems. The primers and probe were mixed with 2× Taqman Fast Universal PCR master mix (2×) (Applied Biosystems Cat. #4364103) and added to 4 μl cDNA to a final volume of 10 μl. Each sample was analysed in duplicate. Assaying 2-fold dilutions of a cDNA that had been prepared on material purified from a cell line expressing the RNA of interest generated standard curves for the assays. Sterile H2O was used instead of cDNA for the no-template control. PCR program: 95° C. for 30 seconds, followed by 40 cycles of 95° C., 3 seconds, 60° C., 20-30 seconds. Relative quantities of target mRNA sequence were determined from the calculated Threshold cycle using the Applied Biosystems Fast System SDS Software Version 1.3.1.21. or SDS Software Version 2.3.\n(§11) Oligonucleotides presented in Table 4 were evaluated for their potential to down-regulate HER3, EGFR and HER2 mRNA at concentrations of 1, 5 and 25 nM in 15PC3 cells (or HUH-7 as indicated by *) (see FIGS. 2, 3, 4 and 5). SEQ ID NOs: 235 and 236 were used as scrambled controls.\n(§12) The data in Table 4 are presented as percentage down-regulation of mRNA relative to mock transfected cells at 25 nM. Lower-case letters represent DNA monomers, bold, upper-case letters represent β-D-oxy-LNA monomers. All cytosines in LNA monomers are 5-methylcytosines. Subscript “s” represents a phosphorothioate linkage."}, "[5]": {"system": "Mouse HER3 mRNA", "experiment": "HER3 mRNA knockdown in liver of nude mice bearing 15PC3 xenografts, qd x 5 (qRT-PCR)", "type": "in vivo", "settings": "i.v.", "experimental": "as §1\n(§13) 200 ng of total RNA was used in the PCR reaction. The data analyses were performed by using the ABI-7500 PCR Fast System included software.\n(§14) Data in Table 5 are presented as % HER3 mRNA levels relative to saline treated controls in liver and tumor samples after i.v. dosing of animals on 5 consecutive days with oligonucleotides in the doses indicated."}, "[6]": {"system": "human EGFR mRNA", "experiment": "Down-regulation of EGFR mRNA in transfected 15PC3 cells, real-time PCR", "type": "cell-based", "settings": "25 nM", "experimental": "as §4, §5, §6, §7, §8, §9, §10, §11, §12"}, "[7]": {"system": "human HER3 mRNA", "experiment": "HER3 mRNA knockdown in 15PC3 xenograft tumor in nude mice, qd x 5 (qRT-PCR)", "type": "in vivo", "settings": "32.4 mg/kg, i.v., relative to saline controls", "experimental": "as §1, §13, §14"}, "[8]": {"system": "human HER3 mRNA", "experiment": "Down-regulation of HER3 mRNA in transfected 15PC3 cells, real-time PCR", "type": "cell-based", "settings": "25 nM", "experimental": "as §4, §5, §6, §7, §8, §9, §10, §11, §12"}, "[9]": {"system": "HER3 mRNA", "experiment": "HER3 mRNA knockdown in 15PC3 xenograft tumor, different dosing cycle", "type": "in vivo, human", "settings": "32.4 x 4 mg/kg i.v., every third day", "experimental": "as §1, §2, §3"}, "[10]": {"system": "human HER3 mRNA", "experiment": "Down-regulation of HER3 mRNA in transfected HUH-7 cells, real-time PCR", "type": "cell-based", "settings": "25 nM, HUH-7 cells (indicated by *)", "experimental": "HUH7: The human hepatocarcinoma cell line was cultured in DMEM (Sigma)+10% fetal bovine serum (FBS)+2 mM Glutamax I+gentamicin (25 μg/ml)+1× Non Essential Amino Acids.\nThe cells were treated with oligonucleotides using the cationic liposome formulation LipofectAMINE 2000 (Gibco) as transfection vehicle. Cells were seeded in 6-well cell culture plates (NUNC) and treated when 80-90% confluent. Oligomer concentrations ranged from 1 nM to 25 nM final concentration. Formulation of oligomer-lipid complexes was carried out essentially as described by the manufacturer using serum-free OptiMEM (Gibco) and a final lipid concentration of 5 μg/mL LipofectAMINE 2000. […]\nas §8\nas §9, with “instructions. […]” for “instructions.”"}},
  "note": "Marks after values point to notes of the source that are not given here. In the oligonucleotide strings, read from the 5' end, every base follows the letter of its sugar. An asterisk marks phosphorothioate; unmarked linkages are phosphodiester. Other units and linkages are bracketed, terminal groups are in braces. A string of capitals states the bases alone. l = locked nucleic acid (LNA); [5mC] = 5-methylcytosine; d = 2'-deoxy (DNA)",
  "data": [
    {"compound": "COc1cc2ncnc(Nc3ccc(F)c(Cl)c3)c2cc1OCCCN1CCOCC1", "note": "[gefitinib]", "values": [
      {"measurement": "cell proliferation of HCC827R cells under gefitinib", "setting": "[1]", "value": "resistant to gefitinib even at the highest concentration tested"}
    ]},
    {"compound": "ASGSAScSaStScSaScStScStSgSGSTSG (antisense lA*lG*lA*dC*dA*dT*dC*dA*dC*dT*dC*dT*dG*lG*lT*lG) [SEQ ID NO: 172, β-D-oxy-LNA/DNA phosphorothioate gapmer antisense oligonucleotide targeting HER3]", "values": [
      {"measurement": "Tumor Hif1A mRNA relative to saline treated controls", "setting": "[2]", "value": "100.3 ± 7.5", "unit": "%"},
      {"measurement": "Liver HER3 mRNA relative to saline treated controls", "setting": "[3]", "value": "44.3 ± 10.6", "unit": "%"},
      {"measurement": "HER2: percentage down-regulation of mRNA relative to mock transfected cells", "setting": "[4]", "value": 61, "unit": "%"},
      {"measurement": "HER3 mRNA Liver", "setting": "[5]; 9.7 mg/kg", "value": "12.2 ± 5.9 % of Sal ctrl"},
      {"measurement": "HER3 mRNA Liver", "setting": "[5]; 32.4 mg/kg", "value": "7.4 ± 5.2 % of Sal ctrl"},
      {"measurement": "EGFR: percentage down-regulation of mRNA relative to mock transfected cells", "setting": "[6]", "value": 86.2, "unit": "%"},
      {"measurement": "HER3 mRNA Tumor", "setting": "[7]", "value": "78.1 ± 15.3", "unit": "%"},
      {"measurement": "HER3: percentage down-regulation of mRNA relative to mock transfected cells", "setting": "[8]", "value": 84.2, "unit": "%"},
      {"measurement": "Tumor HER3 mRNA relative to saline treated controls", "setting": "[9]", "value": "107.3 ± 17", "unit": "%"}
    ]},
    {"compound": "CSASTScSaScStScStSgSgStSgSTSGST (l[5mC]*lA*lT*dC*dA*dC*dT*dC*dT*dG*dG*dT*dG*lT*lG*lT; antisense) [SEQ ID NO: 195]", "values": [
      {"measurement": "HER3: percentage down-regulation of mRNA relative to mock transfected cells", "setting": "[10]", "value": 64.4, "unit": "%*"}
    ]}
  ]
}
